Experimental data taken from US8906919B2, “Treatment of non-neuronal and non-myocardial cell, tissue and organ damage and associated pain with persistent sodium current blockers” (Ozteo Pty Ltd, priority 2009, dated 2014).
Read-outs that look alike come from different tables or passages of the source.

How the values were obtained:
[1] = tested on: kidney tissue; conditions: rat; for kidney glutathione levels compared with non-treated reperfused group: 3 h ischaemia and 45 min reperfusion (FIG. 9)
Experimental: (§1) Additional studies were performed on kidney tissue in 48 isoflurane-anaesthetised, male Wistar albino rats (300-350 g). […] A further ten minutes was allowed for drug circulation prior to the induction of ischaemia. Tissue ischaemia was produced in all animals by occluding the renal artery to the left kidney. Immediately prior to occlusion, a 1,000 unit bolus of IV heparin was injected to prevent blood clotting and to permit reperfusion. Occlusion was maintained for 3 hours following which, in 6 animals in each group, the occlusion was released and reperfusion of the kidney was allowed. Samples of reperfused tissue were excised 45 minutes following reperfusion. Samples of non-reperfused ischaemic tissue were excised 3 hours post occlusion. Samples of ischaemic tissue and of reperfused tissue were taken from different animals. Samples of non-ischaemic, non-treated tissue were excised from the right kidney of the non-treated group.
Persistent sodium current blockade was evaluated for its effect on kidney tissue glutathione levels during ischaemia and reperfusion.

[2] = tested on: kidney tissue; conditions: rat, iv before ischaemia (riluzole 5 mg/kg, lidocaine 1 mg/kg, lamotrigine 20 mg/kg)
Experimental: as §1
In addition, persistent sodium current blockade was assessed for its affect on kidney tissue DNA fragmentation during ischaemia and reperfusion. […] All panels were illuminated by light with wavelength around 520 nm to show DNA fragmentation.

[3] = iv before ischaemia (riluzole 5 mg/kg, lidocaine 1 mg/kg, lamotrigine 20 mg/kg)
[4] = 3 hours of ischaemia and 45 minutes of reperfusion (FIG. 10)
[5] = 3 hours of ischaemia and no reperfusion (FIG. 10)

SMILES | kidney glutathione levels compared with non-treated, non-ischaemic and non-reperfused group ([1]; iv before ischaemia (riluzole 5 mg/kg, lidocaine 1 mg/kg), 3 h ischaemia and 45 min reperfusion (FIG. 9, vs 901)) | kidney glutathione levels compared with non-treated reperfused group [1, 3] | kidney glutathione levels after ischaemia ([1]; iv before ischaemia (riluzole 5 mg/kg, lidocaine 1 mg/kg, lamotrigine 20 mg/kg), 3 h renal artery occlusion, no reperfusion (FIG. 8)) | damaged nuclei (DNA fragmentation) in renal tubules compared with non-treated tissue [2, 4] | damaged nuclei (DNA fragmentation) in renal tubules compared with non-treated tissue [2, 5]
CCN(CC)CC(=O)Nc1c(C)cccc1C [lidocaine] | not significantly different | significantly higher | not significantly reduced | considerably fewer damaged nuclei | considerably fewer damaged nuclei
Nc1nnc(-c2cccc(Cl)c2Cl)c(N)n1 [lamotrigine] | – | substantially higher | – | the reduction in damaged nuclei is still significant | the reduction in damaged nuclei is still significant
